In patent US7381749B2, “Sulfonamides as inhibitors of histone deacetylase for the treatment of disease” (Kalypsys, Inc., priority 2004, dated 2008):
pIC50: −log10 of the molar value.

Assays:
[1] = system: HDAC in cells; experiment: Cellular IC50 (cellular assays: histone hyperacetylation cytoblot / differential cytotoxicity); type: cell-based; conditions: transformed cell lines (e.g. HeLa, A549, MCF-7); cell line not specified
Protocol: These two secondary assays evaluates a compound's ability to inhibit HDAC in cells by measuring cellular histone acetylation levels. The cytoblot facilitates quantitative EC50 information for cellular HDAC inhibition. Transformed cell lines (e.g. HeLa, A549, MCF-7) are cultured under standard media and culture conditions prior to plating.
Cells (approx. 2,500/well) are allowed to adhere 10-24 hours to wells of a 384-well Greiner PS assay plate in media containing 1-5% serum. Cells are treated with appropriate compound and specific concentrations for 0 to 24 hours. Cells are washed once with PBS (60 ul) and then fixed (95% ethanol, 5% acetic acid or 2% PFA) for 1 minute at RT (30 ul). Cells are blocked with 1% BSA for 1 hour and washed and stained with antibody (e.g. anti-Acetylated Histone H3, Upstate Biotechnology), followed by washing and incubation with an appropriate secondary antibody conjugated to HRP or fluorophore. For luminescence assays, signal is generated using Luminol substrate (Santa Cruz Biotechnology) and detected using an Aquest plate reader (Molecular Devices).
Differential Cytotoxicity Assay:
HDAC inhibitors display differential cytotoxicity toward certain transformed cell lines. Cells are cultured according to standard ATCC recommended conditions that are appropriate to each cell type. Compounds were tested for their ability to kill different cell types (normal and transformed) using the ATPlite luminescence ATP detection assay system (Perkin Elmer). Assays are run in either 384-well or 1536-well Greiner PS plates. Cells (30 ul or 5 ul, respectively) are dispensed using either multichannel pipette for 384-well plates, or proprietary Kalypsys bulk liquid dispenser for 1536-well plates. Compounds added using proprietary pin-transfer device (500 nL or 5 nL) and incubated 5 to 30 hours prior to analysis. Luminescence is measured using Aquest plate reader (Molecular Devices).

[2] = system: HDAC; experiment: In vitro HDAC-inhibition assay (Fluor de Lys fluorescent substrate); type: biochemical; conditions: HDAC enzyme source (e.g. partially purified nuclear extract or immunopurified HDAC complexes)
Protocol: In vitro HDAC-Inhibition Assay:
This assay measures a compound's ability to inhibit acetyl-lysine deacetylation in vitro and was used as both a primary screening method as well as for IC50 determinations of confirmed inhibitors. The assay is performed in vitro using an HDAC enzyme source (e.g. partially purified nuclear extract or immunopurified HDAC complexes) and a proprietary fluorescent substrate/developer system (HDAC Quantizyme Fluor de Lys Fluorescent Activity Assay, BIOMOL). The assay is run in 1,536-well Greiner white-bottom plates using the following volumes and order of addition: • Step 1: Enzyme (2.5 ul) source added to plate (from refrigerated container) • Step 2: Compounds (50 nl) added with pin transfer device • Step 3: Fluor de Lys (2.5 ul) substrate added, incubate at RT, 30 minutes • Step 4: Developer (5 ul) solution is added (containing TSA), to stop reaction • Step 5: Plate Reader—data collection • The deacetylated fluorophore is excited with 360 nm light and the emitted light (460 nm) is detected on an automated fluorometric plate reader (Aquest, Molecular Devices).

SMILES | pIC50 [2] | pIC50 [1]
CC(=O)SCC(=O)c1ccc(NS(=O)(=O)c2cc(C)cc(C)c2)cc1 [Example 23, Thioacetic acid 2-[4-(3,5-dimethyl-benzenesulfonylamino)-phenyl]-2-oxo-ethyl ester] | > 6.00 | > 5.00
CC(=O)SCC(=O)c1ccc2c(ccn2S(=O)(=O)c2ccccc2)c1 [Example 49, Thioacetic acid S-[2-(1-benzenesulfonyl-1H-indol-5-yl)-2-oxo-ethyl]ester] | > 6.00 | > 6.00
CC(=O)SCC(=O)c1ccc(NS(=O)(=O)c2c(C)noc2C)cc1 [Example 29] | > 6.00 | > 5.00
CC(=O)SCC(=O)c1ccc2c(c1)CCN2S(=O)(=O)c1ccccn1 [Example 53, Thioacetic acid S-{2-oxo-2-[1-(pyridine-2-sulfonyl)-2,3-dihydro-1H-indol-5-yl]-ethyl}ester] | > 6.00 | > 6.00
CC(=O)SCC(=O)c1ccc2c(c1)CCN2S(=O)(=O)c1ccccc1 [Example 48, Thioacetic acid S-[2-(1-benzenesulfonyl-2,3-dihydro-1H-indol-5-yl)-2-oxo-ethyl]ester] | > 6.00 | > 5.00
CC(=O)SCC(=O)c1ccc(NS(=O)(=O)c2ccc(Cl)cc2Cl)cc1 [Example 28] | > 6.00 | > 6.00
COc1cccc(S(=O)(=O)Nc2ccc(C(=O)CSC(C)=O)cn2)c1 [Example 50, Thioacetic acid S-{2-[6-(3-methoxy-benzenesulfonylamino)-pyridin-3-yl]-2-oxo-ethyl}ester] | > 6.00 | > 6.00
CC(=O)SCC(=O)c1ccc(NS(=O)(=O)c2ccc(F)cc2C)cc1 [Example 18, Thioacetic acid S-{2-[4-(4-fluoro-2-methyl-benzenesulfonylamino)-phenyl]-2-oxo-ethyl}ester] | > 6.00 | > 6.00
CC(=O)SCC(=O)c1ccc(NS(=O)(=O)c2sc(C)nc2C)cc1 [Example 30] | > 6.00 | > 6.00
COc1ccc(S(=O)(=O)Nc2ccc(C(=O)CSC(C)=O)cc2)cc1OC [Example 27] | > 6.00 | > 6.00
CC(=O)SCC(=O)c1ccc(NS(=O)(=O)c2cccnc2)cc1 [Example 52, Thioacetic acid S-{2-oxo-2-[4-(pyridine-3-sulfonylamino)-phenyl]-ethyl}ester] | > 6.00 | > 5.00
CC(=O)SCC(=O)c1ccc(NS(=O)(=O)c2cccc(F)c2)cc1 [Example 46] | > 6.00 | > 6.00
CCS(=O)(=O)Nc1ccc(C(=O)CSC(C)=O)cc1 [Example 22, Thioacetic acid S-[2-(4-ethanesulfonylamino-phenyl)-2-oxo-ethyl]ester] | > 6.00 | > 5.00

More lines, main results first:

pIC50 [2] | SMILES | pIC50 [1]
> 6.00 | CN(C)c1ccc(C(=O)SCC(=O)c2ccc(NS(=O)(=O)c3ccc(OC(F)(F)F)cc3)cc2)cc1 [Example 07] | > 5.00
> 5.00 | COC(=O)SCC(=O)c1ccc(NS(=O)(=O)c2ccc(OC(F)(F)F)cc2)cc1 [Example 08, Thiocarbonic acid O-methyl ester S-{2-oxo-2-[4-(4-trifluoromethoxy-benzenesulfonylamino)-phenyl]-ethyl}ester] | > 6.00
> 6.00 | CC(=O)SCC(=O)c1ccc(NS(=O)(=O)c2ccc(F)cc2)cc1 [Example 34] | > 6.00
> 6.00 | CC(=O)SCC(=O)c1ccc(NS(=O)(=O)c2ccc(Cl)cc2)cc1 [Example 36] | > 6.00
> 6.00 | CC(=O)SCC(=O)c1ccc(NS(=O)(=O)c2ccccn2)cc1 [Example 51, Thioacetic acid S-{2-oxo-2-[4-(pyridine-2-sulfonylamino)-phenyl]-ethyl}ester] | > 6.00
> 5.00 | CC(=O)SCC(=O)c1ccccc1NS(=O)(=O)c1ccc(OC(F)(F)F)cc1 [Example 40] | < 4.30
> 6.00 | CC(=O)SCC(=O)c1ccc(NS(=O)(=O)c2ccc(OC(F)(F)F)cc2)cc1F [Example 47, Thioacetic acid S-{2-[2-fluoro-4-(4-trifluoromethoxy-benzenesulfonylamino)-phenyl]-2-oxo-ethyl}ester] | > 6.00
> 6.00 | COc1cccc(S(=O)(=O)Nc2ccc(C(=O)CSC(C)=O)cc2)c1 [Example 21, Thioacetic acid S-{2-[4-(3-methoxy-benzenesulfonylamino)-phenyl]-2-oxo-ethyl}ester] | > 6.00
> 6.00 | CC(=O)SCC(=O)c1ccc(NS(=O)(=O)c2ccc(Cl)c(C(F)(F)F)c2)cc1 [Example 20, Thioacetic acid S-{2-[4-(4-chloro-3-trifluoromethyl-benzenesulfonylamino)-phenyl]-2-oxo-ethyl}ester] | > 6.00
> 6.00 | CC(=O)SCC(=O)c1ccc(NS(=O)(=O)c2ccc(C)cc2)cc1 [Example 16, Thioacetic acid S-{12-oxo-2-[4-(toluene-4-sulfonylamino)-phenyl]-ethyl}ester] | > 6.00
> 6.00 | CC(=O)SCC(=O)c1ccc(NS(=O)(=O)c2cccc(C(F)(F)F)c2)cc1 [Example 17, Thioacetic acid S-{2-oxo-2-[4-(3-trifluoromethyl-benzenesulfonylamino)-phenyl]-ethyl}ester] | > 5.00
> 6.00 | O=C(CSC(=O)c1ccccn1)c1ccc(NS(=O)(=O)c2ccc(OC(F)(F)F)cc2)cc1 [Example 09, Pyridine-2-carbothioic acid S-{2-oxo-2-[4-(4-trifluoromethoxy-benzenesulfonylamino)-phenyl]-ethyl}ester] | > 6.00
> 6.00 | CC(=O)SCC(=O)c1cccc(NS(=O)(=O)c2ccc(OC(F)(F)F)cc2)c1 [Example 39] | > 6.00
> 6.00 | CC(=O)SCC(=O)c1ccc(NS(=O)(=O)c2ccccc2F)cc1 [Example 35] | > 6.00
